The text below walks through data of US8754071B2 (priority 2011, dated 2014).

The target of this test is T1, c-kit (Homo sapiens, UniProt P10721).
T1 construct: human Mo7e cells which endogenously express c-kit; endogenous in cells; host or cells: human Mo7e cells (promegakaryocytic leukemia line), stimulated with human recombinant SCF
T1 sequence (P10721 26-976): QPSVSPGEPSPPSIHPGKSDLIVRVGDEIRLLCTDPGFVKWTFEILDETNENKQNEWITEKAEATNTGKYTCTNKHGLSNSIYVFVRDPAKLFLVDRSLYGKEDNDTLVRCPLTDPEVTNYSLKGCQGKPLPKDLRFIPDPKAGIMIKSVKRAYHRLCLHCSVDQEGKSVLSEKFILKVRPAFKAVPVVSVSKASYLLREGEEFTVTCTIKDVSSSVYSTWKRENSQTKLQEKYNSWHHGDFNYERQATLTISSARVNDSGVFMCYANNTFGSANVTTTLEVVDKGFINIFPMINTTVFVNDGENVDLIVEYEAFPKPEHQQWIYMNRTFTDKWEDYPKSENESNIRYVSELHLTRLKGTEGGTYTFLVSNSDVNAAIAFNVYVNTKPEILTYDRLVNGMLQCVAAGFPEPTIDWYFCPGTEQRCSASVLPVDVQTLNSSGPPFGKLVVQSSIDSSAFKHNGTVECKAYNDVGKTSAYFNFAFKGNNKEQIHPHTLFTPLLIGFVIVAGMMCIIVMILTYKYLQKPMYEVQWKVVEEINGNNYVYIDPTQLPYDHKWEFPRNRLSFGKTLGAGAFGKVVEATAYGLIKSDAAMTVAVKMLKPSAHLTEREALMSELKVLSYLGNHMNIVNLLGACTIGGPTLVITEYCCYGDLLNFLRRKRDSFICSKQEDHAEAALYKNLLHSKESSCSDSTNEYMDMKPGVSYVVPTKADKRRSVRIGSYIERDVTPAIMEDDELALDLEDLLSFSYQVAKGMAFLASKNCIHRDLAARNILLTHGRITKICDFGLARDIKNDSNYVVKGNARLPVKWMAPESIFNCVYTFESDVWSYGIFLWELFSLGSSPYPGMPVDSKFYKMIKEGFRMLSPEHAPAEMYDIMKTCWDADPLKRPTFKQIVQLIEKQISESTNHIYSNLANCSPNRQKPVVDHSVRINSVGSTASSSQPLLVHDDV
Description: Mo7e cell proliferation assay (SCF dependent proliferation). The format is cell-based. The conditions noted are these: Table 1; human Mo7e cells stimulated with SCF, 48 hours, CellTiter Glo; 1% FBS; read-out: c-kit (Mo7e). Here is the method:
Mo7e Cell Proliferation Assay The compounds of Table 1 and Table 2 were tested for inhibition of SCF dependent proliferation using human Mo7e cells which endogenously express c-kit in a 384 well format. […] After 48 hours of incubation at 37° C., cell viability was measured by adding 25 uL of CellTiter Glo (Promega) to the cells and the luminescence was measured by a […] camera (Molecular Devices). […] The IC50 value is given as that concentration of the test compound in question that provoke a response halfway between the baseline and maximum responses.
For orientation: Cellular ATP, detected with luciferase, serves as a proxy for viable cell number.
For the molecule `COC(=O)N1CC(c2nc(-c3ccc(C)c(NC(=O)c4cnc5ccc(C(F)(F)F)cn45)c3)no2)C1` [F52, methyl 3-(3-(4-methyl-3-(6-(trifluoromethyl)imidazo[1,2-a]pyridine-3-carboxamido)phenyl)-1,2,4-oxadiazol-5-yl)azetidine-1-carboxylate], the IC50 stood at 218 nM.

In the case of `CCOC(=O)N1CC(c2nc(-c3ccc(C)c(NC(=O)c4cnc5ccccn45)c3)no2)C1` [F53], the IC50 amounted to 93 nM.

As for `COC(=O)N1CC(c2nc(-c3ccc(C)c(NC(=O)c4cnc5cc(F)ccn45)c3)no2)C1` [F54], the IC50 was determined as 37 nM.

As to `COC(=O)N1CC(c2nc(-c3ccc(C)c(NC(=O)c4cnc5ccc(F)cn45)c3)no2)C1` [F55], the IC50 amounted to 54 nM.

Consider `COC(=O)N1CC(c2nc(-c3ccc(C)c(NC(=O)c4cnc5cc(-c6ccn(C)n6)ccn45)c3)no2)C1` [F56, methyl 3-(3-(4-methyl-3-(7-(1-methyl-1H-pyrazol-3-yl)imidazo[1,2-a]pyridine-3-carboxamido)phenyl)-1,2,4-oxadiazol-5-yl)azetidine-1-carboxylate], for which the IC50 worked out at 6 nM.

Regarding `COC(=O)N1CC(c2nc(-c3ccc(C)c(NC(=O)c4cnc5cc(C(F)(F)F)ccn45)c3)no2)C1` [F57, methyl 3-(3-(4-methyl-3-(7-(trifluoromethyl)imidazo[1,2-a]pyridine-3-carboxamido)phenyl)-1,2,4-oxadiazol-5-yl)azetidine-1-carboxylate], the IC50 is 130 nM.

With `Cc1ccc(-c2noc(C3(C)CN(S(C)(=O)=O)C3)n2)cc1NC(=O)c1cnc2ccccn12` [F58], the IC50 amounted to 89 nM.

Consider `COC(=O)N1CC(c2nc(-c3ccc(C)c(NC(=O)c4cnc5ccc(CCCC#N)cn45)c3)no2)C1` [F59, methyl 3-(3-(3-(6-(3-cyanopropyl)imidazo[1,2-a]pyridine-3-carboxamido)-4-methylphenyl)-1,2,4-oxadiazol-5-yl)azetidine-1-carboxylate], for which the IC50 was determined as 33 nM.

For `COC(=O)N1CC(c2nc(-c3ccc(C)c(NC(=O)c4cnc5ccc(OC)cn45)c3)no2)C1` [F60], the IC50 turned out to be 28 nM.

As to `COC(=O)N1CC(c2nc(-c3ccc(C)c(NC(=O)c4cnc5cc(C)ccn45)c3)no2)C1` [F61, methyl 3-(3-(4-methyl-3-(7-methylimidazo[1,2-a]pyridine-3-carboxamido)phenyl)-1,2,4-oxadiazol-5-yl)azetidine-1-carboxylate], the IC50 was 26 nM.

With `COC(=O)N1CC(c2nc(-c3ccc(C)c(NC(=O)c4cnc5ccc(C)cn45)c3)no2)C1` [F62, methyl 3-(3-(4-methyl-3-(6-methylimidazo[1,2-a]pyridine-3-carboxamido)phenyl)-1,2,4-oxadiazol-5-yl)azetidine-1-carboxylate], the IC50 came to 36 nM.

As for `COC(=O)N1CC(c2nc(-c3ccc(C)c(NC(=O)c4cnc5cc(-c6cnn(CCN7CCOCC7)c6)ccn45)c3)no2)C1` [F63], the IC50 worked out at 13 nM.

In the case of `COC(=O)N1CC(c2nc(-c3ccc(C)c(NC(=O)c4cnc5ccc(CCC#N)cn45)c3)no2)C1` [F64, methyl 3-(3-(3-(6-(2-cyanoethyl)imidazo[1,2-a]pyridine-3-carboxamido)-4-methylphenyl)-1,2,4-oxadiazol-5-yl)azetidine-1-carboxylate], the IC50 worked out at 64 nM.

As to `COC(=O)N1CC(c2nc(-c3ccc(C)c(NC(=O)c4cnc5ccc(CCC(C)=O)cn45)c3)no2)C1` [F65, methyl 3-(3-(4-methyl-3-(6-(3-oxobutyl)imidazo[1,2-a]pyridine-3-carboxamido)phenyl)-1,2,4-oxadiazol-5-yl)azetidine-1-carboxylate], the IC50 was found to be 33 nM.

For the molecule `COC(=O)N1CC(c2nc(-c3ccc(C)c(NC(=O)c4cnc5ccc(CCN6CCOCC6)cn45)c3)no2)C1` [F66, methyl 3-(3-(4-methyl-3-(6-(2-morpholinoethyl)imidazo[1,2-a]pyridine-3-carboxamido)phenyl)-1,2,4-oxadiazol-5-yl)azetidine-1-carboxylate], the IC50 was 50 nM.

`COC(=O)N1CC(c2nc(-c3ccc(C)c(NC(=O)c4cnc5ccc(CCC(C)(C)O)cn45)c3)no2)C1` [F67, methyl 3-(3-(3-(6-(3-hydroxy-3-methylbutyl)imidazo[1,2-a]pyridine-3-carboxamido)-4-methylphenyl)-1,2,4-oxadiazol-5-yl)azetidine-1-carboxylate]: the IC50 was found to be 29 nM.

On to `COC(=O)N1CC(c2nc(-c3ccc(C)c(NC(=O)c4cnc5cc(-c6cc[nH]n6)ccn45)c3)no2)C1` [F68, methyl 3-(3-(3-(7-(1H-pyrazol-3-yl)imidazo[1,2-a]pyridine-3-carboxamido)-4-methylphenyl)-1,2,4-oxadiazol-5-yl)azetidine-1-carboxylate], for which the IC50 was 13 nM.

`Cc1ccc(Nc2noc(C3CCOCC3)n2)cc1NC(=O)c1cnc2ccccn12` [F69]: the IC50 was 39 nM.

Consider `Cc1ccc(Nc2noc(C3CCCCO3)n2)cc1NC(=O)c1cnc2ccccn12` (centres unmarked) [F70], for which the IC50 was determined as 6 nM.

On to `Cc1ccc(Nc2noc([C@H]3CCCO3)n2)cc1NC(=O)c1cnc2ccccn12` [F71], for which the IC50 stood at 11 nM.

`Cc1ccc(Nc2noc([C@@H]3CCCO3)n2)cc1NC(=O)c1cnc2ccccn12` [F72]: the IC50 came out at 6 nM.

As for `COC(=O)N1CC(c2nc(-c3ccc(C)c(NC(=O)c4cnc5cc(CCC(C)=O)ccn45)c3)no2)C1` [F73, methyl 3-(3-(4-methyl-3-(7-(3-oxobutyl)imidazo[1,2-a]pyridine-3-carboxamido)phenyl)-1,2,4-oxadiazol-5-yl)azetidine-1-carboxylate], the IC50 came out at 30 nM.

With `COC(=O)N1CC(c2nc(-c3ccc(C)c(NC(=O)c4cnc5cc(CCC(C)(C)O)ccn45)c3)no2)C1` [F74, methyl 3-(3-(3-(7-(3-hydroxy-3-methylbutyl)imidazo[1,2-a]pyridine-3-carboxamido)-4-methylphenyl)-1,2,4-oxadiazol-5-yl)azetidine-1-carboxylate], the IC50 was 51 nM.

Consider `Cc1ccc(-c2nc(N3CCOCC3)no2)cc1NC(=O)c1cnc2ccccn12` [F75, N-(2-methyl-5-(3-morpholino-1,2,4-oxadiazol-5-yl)phenyl)imidazo[1,2-a]pyridine-3-carboxamide], for which the IC50 is 61 nM.

On to `[2H]c1c([2H])c([2H])n2c(C(=O)Nc3cc(-c4noc(C5CN(C(=O)OC)C5)n4)ccc3C)cnc2c1[2H]` [F76, methyl 3-(3-(4-methyl-3-(5,6,7,8-(D4)imidazo[1,2-a]pyridine-3-carboxamido)phenyl)-1,2,4-oxadiazol-5-yl)azetidine-1-carboxylate], for which the IC50 turned out to be 51 nM.

As to `Cc1ccc(-c2noc(N3CCC3)n2)cc1NC(=O)c1cnc2ccccn12` [F77, N-(5-(5-(azetidin-1-yl)-1,2,4-oxadiazol-3-yl)-2-methylphenyl)imidazo[1,2-a]pyridine-3-carboxamide], the IC50 worked out at 132 nM.

Regarding `Cc1ccc(-c2noc(N3CC(F)(F)C3)n2)cc1NC(=O)c1cnc2ccccn12` [F78], the IC50 stood at 55 nM.

Consider `COC(=O)N1CC(c2nc(-c3cc(NC(=O)c4cnc5ccccn45)c(C)cc3C)no2)C1` [F79, methyl 3-(3-(5-(imidazo[1,2-a]pyridine-3-carboxamido)-2,4-dimethylphenyl)-1,2,4-oxadiazol-5-yl)azetidine-1-carboxylate], for which the IC50 came to 37 nM.

For `[2H]C([2H])([2H])c1ccn2c(C(=O)Nc3cc(-c4noc(C5CN(C(=O)OC)C5)n4)ccc3C)cnc2c1` [F80, methyl 3-(3-(4-methyl-3-(7-methyl-d3-imidazo[1,2-a]pyridine-3-carboxamido)phenyl)-1,2,4-oxadiazol-5-yl)azetidine-1-carboxylate], the IC50 amounted to 44 nM.

Turning to `Cc1ccc(-c2noc(NC3CCOCC3)n2)cc1NC(=O)c1cnc2cc(F)ccn12` [F81], the IC50 was 84 nM.

Regarding `Cc1ccc2ncc(C(=O)Nc3cc(-c4noc(NC5CCOCC5)n4)ccc3C)n2c1` [F82], the IC50 was 55 nM.

On to `COC(=O)N1CC(c2nc(-c3ccc(C)c(NC(=O)c4cnc5ccc(N6CCOCC6)cn45)c3)no2)C1` [F83], for which the IC50 came to 40 nM.

`COC(=O)N1CC(c2nc(-c3ccc(C)c(NC(=O)c4cnc5ccc(COCC(F)(F)F)cn45)c3)no2)C1` [F84]: the IC50 amounted to 38 nM.

For `Cc1ccn2c(C(=O)Nc3cc(-c4noc(N5CC(F)(F)C5)n4)ccc3C)cnc2c1` [F86], the IC50 came out at 93 nM.

With `Cc1ccc(-c2noc(N3CC(F)(F)C3)n2)cc1NC(=O)c1cnc2cc(F)ccn12` [F87], the IC50 is 91 nM.

Regarding `Cc1ccn2c(C(=O)Nc3cc(-c4noc(N5CC(C)(O)C5)n4)ccc3C)cnc2c1` [F88], the IC50 came to 62 nM.

Turning to `Cc1ccn2c(C(=O)Nc3cc(-c4noc(N5CCC(F)(F)CC5)n4)ccc3C)cnc2c1` [F89], the IC50 is 31 nM.

In the case of `Cc1ccn2c(C(=O)Nc3cc(-c4noc(N5CCC(F)CC5)n4)ccc3C)cnc2c1` [F90], the IC50 stood at 33 nM.

As for `Cc1ccn2c(C(=O)Nc3cc(-c4noc(N5CCOCC5)n4)ccc3C)cnc2c1` [F91], the IC50 was 64 nM.

Consider `Cc1ccn2c(C(=O)Nc3cc(-c4noc(N5CCC(F)(F)C5)n4)ccc3C)cnc2c1` [F92], for which the IC50 was 21 nM.

`Cc1ccn2c(C(=O)Nc3cc(-c4noc(N5CCCC(C(F)(F)F)C5)n4)ccc3C)cnc2c1` (centres unmarked) [F93]: the IC50 was found to be 48 nM.

Consider `Cc1ccc(-c2nc(N3C[C@@H]4C[C@H]3CO4)no2)cc1NC(=O)c1cnc2ccccn12` [F94], for which the IC50 was found to be 92 nM.

As to `COC(=O)N1CC(c2nc(-c3ccc(C)c(NC(=O)c4cnc5ccc(COCC(F)F)cn45)c3)no2)C1` [F95, methyl 3-(3-(3-(6-((2,2-difluoroethoxy)methyl)imidazo[1,2-a]pyridine-3-carboxamido)-4-methylphenyl)-1,2,4-oxadiazol-5-yl)azetidine-1-carboxylate], the IC50 amounted to 19 nM.

Turning to `COC(=O)N1CC(c2nc(-c3ccc(C)c(NC(=O)c4cnc5ccc(COCCF)cn45)c3)no2)C1` [F96], the IC50 was determined as 26 nM.
